# Reference: the Kinase Knowledgebase extract (Sharma et al. 2016)
# Target: ROCK2 (human) (UniProt O75116)
# Assay: Inhibition of ROCK2 Kinase Activity
# Details: concentration not given here
# Sequence of ROCK2 (human) (O75116 whole entry, looked up): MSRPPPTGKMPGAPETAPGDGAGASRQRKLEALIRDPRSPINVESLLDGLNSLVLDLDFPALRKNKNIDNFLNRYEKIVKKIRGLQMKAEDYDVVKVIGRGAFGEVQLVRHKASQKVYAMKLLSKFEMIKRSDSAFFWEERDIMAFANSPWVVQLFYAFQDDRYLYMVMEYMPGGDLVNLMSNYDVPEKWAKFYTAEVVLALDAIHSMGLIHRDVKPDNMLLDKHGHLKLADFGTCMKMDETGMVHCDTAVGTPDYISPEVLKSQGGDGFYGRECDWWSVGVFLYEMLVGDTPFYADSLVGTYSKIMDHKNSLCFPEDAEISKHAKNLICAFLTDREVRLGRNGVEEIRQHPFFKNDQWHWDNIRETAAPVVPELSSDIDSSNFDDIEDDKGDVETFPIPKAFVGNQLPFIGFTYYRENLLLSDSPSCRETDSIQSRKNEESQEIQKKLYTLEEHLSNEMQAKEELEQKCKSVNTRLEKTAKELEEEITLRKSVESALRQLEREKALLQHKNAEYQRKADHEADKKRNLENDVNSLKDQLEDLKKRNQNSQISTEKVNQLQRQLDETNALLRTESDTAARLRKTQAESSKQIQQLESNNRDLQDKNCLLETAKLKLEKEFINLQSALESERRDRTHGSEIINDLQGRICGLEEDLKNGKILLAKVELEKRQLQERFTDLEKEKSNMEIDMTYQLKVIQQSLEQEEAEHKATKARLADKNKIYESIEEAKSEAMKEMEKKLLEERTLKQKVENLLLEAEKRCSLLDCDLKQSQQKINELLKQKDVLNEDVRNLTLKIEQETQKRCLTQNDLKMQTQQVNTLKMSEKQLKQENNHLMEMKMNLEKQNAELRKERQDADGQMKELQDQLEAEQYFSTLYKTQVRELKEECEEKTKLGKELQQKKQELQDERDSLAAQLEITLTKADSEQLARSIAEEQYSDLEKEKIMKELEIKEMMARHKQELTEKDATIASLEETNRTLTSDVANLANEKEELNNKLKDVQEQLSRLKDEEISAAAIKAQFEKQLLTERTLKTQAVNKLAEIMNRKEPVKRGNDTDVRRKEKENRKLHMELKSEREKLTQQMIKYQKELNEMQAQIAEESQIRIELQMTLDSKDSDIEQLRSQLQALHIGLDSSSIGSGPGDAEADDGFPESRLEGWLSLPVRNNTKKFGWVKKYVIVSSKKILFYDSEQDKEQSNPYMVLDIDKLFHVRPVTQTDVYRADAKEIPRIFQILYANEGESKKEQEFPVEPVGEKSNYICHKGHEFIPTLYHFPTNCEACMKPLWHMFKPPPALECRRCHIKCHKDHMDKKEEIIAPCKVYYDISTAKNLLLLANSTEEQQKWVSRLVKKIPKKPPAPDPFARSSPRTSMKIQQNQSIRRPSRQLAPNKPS
row,inhibition,SMILES
1,0%,Cn1cnc2c(Nc3ccccc3)ncnc21
2,22%,C(=C\c1ncnc2[nH]cnc12)/c1ccccc1
3,0%,Cn1c(Br)nc2c(Sc3ccccc3)ncnc21
4,0%,Cn1cnc2c(/C=C/c3ccccc3)ncnc21
5,0%,Cn1c(-c2ccccc2)nc2c(-c3ccc(F)cc3)ncnc21
6,0%,c1ccc(-n2cnc3ncncc32)cc1
7,0%,Cn1c(C#CCCO)nc2c(Sc3ccccc3)ncnc21

# Further lines, the compound ahead of its results:
row,SMILES,inhibition
1,CSc1ccc(-c2nc3c(Sc4ccccc4)ncnc3n2C)cc1,0%
2,Cn1c(-c2ccc(S(C)(=O)=O)cc2)nc2c(Sc3ccc(F)cc3)ncnc21,0%
3,Cn1c(-c2ccc([S+](C)[O-])cc2)nc2c(Sc3ccc(F)cc3)ncnc21 (centres undefined),0%
4,Nc1ncnc2c1ncn2Cc1ccc(F)cc1,0%
5,CSc1ccc(-c2nc3c(Sc4ccc(F)cc4)ncnc3n2C)cc1,0%
6,Fc1ccc(Cn2cnc3c(Sc4ccc(F)cc4)ncnc32)cc1,0%
7,Fc1ccc(Cn2cnc3c(Cl)ncnc32)cc1,0%
